From the supplement of paper PMC8671470
Counter-ions that a name gives are not always drawn.

test system: NOMO-1; test: cell viability (% survival relative to DMSO control, bortezomib = 0%); higher = less cytotoxic; settings: 10 nM; 72 h
In short: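 Fifteen myeloid leukaemia cell lines were exposed to compounds at 1, 10, 100, 1000 or 10000 nM in 384-well plates for 72 h at 37 °C and 5% CO2. Viability was read by CellTiter-Glo luminescence and normalised, with vehicle as 100% and a 10 µM positive control as 0%. Values are percent survival averaged over duplicates.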

| SMILES | cell viability |
| --- | --- |
| Cc1nc(-c2ccccc2)sc1C(=O)Nc1ccc(S(N)(=O)=O)cc1 | 98.2% |
| C=CC(=O)c1ccc(O)cc1 [4-Acryloylphenol] | 92.6% |
| O=c1cc(-c2ccccc2)oc2c1ccc1ccccc12 [Alpha-Naphtoflavone] | 94.3% |
| Cc1c(Cl)cccc1S(=O)(=O)Nc1nc(CC(=O)N2CCN(C)CC2)cs1 [BVT-2733] | 97.6% |
| CCc1oc2ccccc2c1C(=O)c1cc(Br)c(O)c(Br)c1 [Benzbromarone] | 103% |
| CCOC(=O)c1sc(NC(=O)c2ccco2)c(SC#N)c1C [CBR-5884] | 104% |
| CCCCCOC(=O)Nc1nc(=O)n([C@@H]2O[C@H](C)[C@@H](O)[C@H]2O)cc1F [Capecitabine] | 100% |
| Cc1ccc(-c2cc(C(F)(F)F)nn2-c2ccc(S(N)(=O)=O)cc2)cc1 [Celecoxib] | 109% |
| O=c1c(-c2ccc(O)cc2)coc2cc(O[C@@H]3O[C@H](CO)[C@@H](O)[C@H](O)[C@H]3O)ccc12 [Daidzin] | 99.7% |
| C[C@H]1c2cccc(O)c2C(=O)C2C(=O)[C@]3(O)C(=O)C(C(N)=O)C(=O)[C@@H](N(C)C)[C@@H]3[C@@H](O)[C@@H]21 (stereo partly specified) [Doxycycline] | 92% |
| OC[C@H]1NC[C@H](O)[C@@H](O)[C@@H]1O [Duvoglustat] | 101% |
| O=C(NCCN1CCC(n2c(O)nc3ccccc32)CC1)c1cc2cc(F)ccc2[nH]1 [FIPI] | 95.4% |
| CCN(CCO)CCCC(C)Nc1ccnc2cc(Cl)ccc12 (stereo unspecified) [Hydroxychloroquine sulfate] | 106% |
| O=C([O-])CC(O)(C(=O)[O-])C(O)C(=O)[O-].[K+].[K+].[K+] (stereo unspecified) [Hydroxycitrate] | 101% |
| CCCCCN(C)CCC(O)(P(=O)(O)O)P(=O)(O)O [Ibandronate] | 99.3% |
| Cc1cc(C(=O)NNCc2ccccc2)no1 [Isocarboxazid] | 103% |
| CCn1c(=Cc2cccc[n+]2CC)sc(=C2Sc3ccccc3N2C)c1=O [MKT 077] | 96.2% |
| COC(=O)c1cc2c(C(F)(F)F)cc(-c3ccccc3)cc2n1O [NHI-2] | 102% |
| CCCCCCCC/C=C\CCCCCCCC(=O)Nc1ccccc1 [Octadec-9-Enoic Acid Phenylamide] | 97.1% |
| CC[C@H](C)[C@H](N)C(=O)N1CCSC1 [P32/98] | 102% |
| OC[C@H]1O[C@@H](n2cnc3c2N=CNC[C@H]3O)C[C@@H]1O [Pentostatin] | 94.3% |
| CC(C)CC(=O)N[C@H](C(=O)N[C@H](C(=O)N[C@@H](CC(C)C)[C@@H](O)CC(=O)N[C@@H](C)C(=O)N[C@@H](CC(C)C)[C@@H](O)CC(=O)O)C(C)C)C(C)C [Pepstatin A] | 86.8% |
| Cc1cccc(Nc2cc(Cl)nc(SCC(=O)O)n2)c1C [Pirinixic acid] | 102% |
| C[C@]12C=CC(=O)C=C1CC[C@@H]1[C@@H]2[C@@H](O)C[C@@]2(C)[C@H]1CC[C@]2(O)C(=O)CO [Prednisolone] | 103% |
| N[C@@H](CC(=O)N1CCn2c(nnc2C(F)(F)F)C1)Cc1cc(F)c(F)cc1F [Sitagliptin] | 96.9% |
| CCCc1nc(C)c2c(=O)nc(-c3cc(S(=O)(=O)N4CCN(CC)CC4)ccc3OCC)[nH]n12 [Vardenafil] | 84.3% |
| CCc1c(C(=O)C(N)=O)c2c(OCC(=O)O)cccc2n1Cc1ccccc1 [Varespladib] | 91.6% |
| N#Cc1ccc(N(Cc2ccc(Br)cc2)n2cnnc2)cc1 [YM511] | 104% |
| N#C/C(=C\c1ccc(O)cc1)C(=O)O [alpha-cyano-4-hydroxycinnamic acid] | 96.2% |

same assay, conditions: 100 nM; 72 h

| SMILES | cell viability |
| --- | --- |
| CN(CCCOc1ccc(Cc2ccccc2)cc1)CCC(=O)O | 95.1% |
| COc1ccc2c(NC(=O)Nc3cccc(C(F)(F)F)n3)ccnc2c1 | 113% |
| Cc1nc(-c2ccccc2)sc1C(=O)Nc1ccc(S(N)(=O)=O)cc1 | 96.6% |
| C=CC(=O)c1ccc(O)cc1 [4-Acryloylphenol] | 107% |
| O=c1cc(-c2ccccc2)oc2c1ccc1ccccc12 [Alpha-Naphtoflavone] | 108% |
| Cc1c(Cl)cccc1S(=O)(=O)Nc1nc(CC(=O)N2CCN(C)CC2)cs1 [BVT-2733] | 99.1% |
| CCc1oc2ccccc2c1C(=O)c1cc(Br)c(O)c(Br)c1 [Benzbromarone] | 94.8% |
| CCOC(=O)c1sc(NC(=O)c2ccco2)c(SC#N)c1C [CBR-5884] | 97.4% |
| CCCCCOC(=O)Nc1nc(=O)n([C@@H]2O[C@H](C)[C@@H](O)[C@H]2O)cc1F [Capecitabine] | 94.9% |
| Cc1ccc(-c2cc(C(F)(F)F)nn2-c2ccc(S(N)(=O)=O)cc2)cc1 [Celecoxib] | 94.8% |
| O=c1c(-c2ccc(O)cc2)coc2cc(O[C@@H]3O[C@H](CO)[C@@H](O)[C@H](O)[C@H]3O)ccc12 [Daidzin] | 99.4% |
| C[C@H]1c2cccc(O)c2C(=O)C2C(=O)[C@]3(O)C(=O)C(C(N)=O)C(=O)[C@@H](N(C)C)[C@@H]3[C@@H](O)[C@@H]21 (stereo partly specified) [Doxycycline] | 104% |
| OC[C@H]1NC[C@H](O)[C@@H](O)[C@@H]1O [Duvoglustat] | 99.5% |
| O=C(NCCN1CCC(n2c(O)nc3ccccc32)CC1)c1cc2cc(F)ccc2[nH]1 [FIPI] | 110% |
| CCN(CCO)CCCC(C)Nc1ccnc2cc(Cl)ccc12 (stereo unspecified) [Hydroxychloroquine sulfate] | 98.8% |
| O=C([O-])CC(O)(C(=O)[O-])C(O)C(=O)[O-].[K+].[K+].[K+] (stereo unspecified) [Hydroxycitrate] | 99.1% |

| SMILES | cell viability |
| --- | --- |
| CCCCCN(C)CCC(O)(P(=O)(O)O)P(=O)(O)O [Ibandronate] | 94.4% |
| Cc1cc(C(=O)NNCc2ccccc2)no1 [Isocarboxazid] | 109% |
| CCn1c(=Cc2cccc[n+]2CC)sc(=C2Sc3ccccc3N2C)c1=O [MKT 077] | 98.1% |
| COC(=O)c1cc2c(C(F)(F)F)cc(-c3ccccc3)cc2n1O [NHI-2] | 92.2% |
| CCCCCCCC/C=C\CCCCCCCC(=O)Nc1ccccc1 [Octadec-9-Enoic Acid Phenylamide] | 97.1% |
| CC[C@H](C)[C@H](N)C(=O)N1CCSC1 [P32/98] | 99.6% |
| OC[C@H]1O[C@@H](n2cnc3c2N=CNC[C@H]3O)C[C@@H]1O [Pentostatin] | 113% |
| CC(C)CC(=O)N[C@H](C(=O)N[C@H](C(=O)N[C@@H](CC(C)C)[C@@H](O)CC(=O)N[C@@H](C)C(=O)N[C@@H](CC(C)C)[C@@H](O)CC(=O)O)C(C)C)C(C)C [Pepstatin A] | 106% |
| Cc1cccc(Nc2cc(Cl)nc(SCC(=O)O)n2)c1C [Pirinixic acid] | 102% |
| C[C@]12C=CC(=O)C=C1CC[C@@H]1[C@@H]2[C@@H](O)C[C@@]2(C)[C@H]1CC[C@]2(O)C(=O)CO [Prednisolone] | 109% |
| N[C@@H](CC(=O)N1CCn2c(nnc2C(F)(F)F)C1)Cc1cc(F)c(F)cc1F [Sitagliptin] | 91.3% |
| CCCc1nc(C)c2c(=O)nc(-c3cc(S(=O)(=O)N4CCN(CC)CC4)ccc3OCC)[nH]n12 [Vardenafil] | 96.1% |
| CCc1c(C(=O)C(N)=O)c2c(OCC(=O)O)cccc2n1Cc1ccccc1 [Varespladib] | 101% |
| N#Cc1ccc(N(Cc2ccc(Br)cc2)n2cnnc2)cc1 [YM511] | 98.4% |
| N#C/C(=C\c1ccc(O)cc1)C(=O)O [alpha-cyano-4-hydroxycinnamic acid] | 106% |

same assay, conditions: 1000 nM; 72 h

| SMILES | cell viability |
| --- | --- |
| CN(CCCOc1ccc(Cc2ccccc2)cc1)CCC(=O)O | 106% |
| COc1ccc2c(NC(=O)Nc3cccc(C(F)(F)F)n3)ccnc2c1 | 94.5% |
| Cc1nc(-c2ccccc2)sc1C(=O)Nc1ccc(S(N)(=O)=O)cc1 | 101% |
| C=CC(=O)c1ccc(O)cc1 [4-Acryloylphenol] | 102% |
| O=c1cc(-c2ccccc2)oc2c1ccc1ccccc12 [Alpha-Naphtoflavone] | 95.6% |
| Cc1c(Cl)cccc1S(=O)(=O)Nc1nc(CC(=O)N2CCN(C)CC2)cs1 [BVT-2733] | 99.1% |
| CCc1oc2ccccc2c1C(=O)c1cc(Br)c(O)c(Br)c1 [Benzbromarone] | 93.9% |
| CCOC(=O)c1sc(NC(=O)c2ccco2)c(SC#N)c1C [CBR-5884] | 100% |
| CCCCCOC(=O)Nc1nc(=O)n([C@@H]2O[C@H](C)[C@@H](O)[C@H]2O)cc1F [Capecitabine] | 93% |
| Cc1ccc(-c2cc(C(F)(F)F)nn2-c2ccc(S(N)(=O)=O)cc2)cc1 [Celecoxib] | 99.4% |
| O=c1c(-c2ccc(O)cc2)coc2cc(O[C@@H]3O[C@H](CO)[C@@H](O)[C@H](O)[C@H]3O)ccc12 [Daidzin] | 101% |
| C[C@H]1c2cccc(O)c2C(=O)C2C(=O)[C@]3(O)C(=O)C(C(N)=O)C(=O)[C@@H](N(C)C)[C@@H]3[C@@H](O)[C@@H]21 (stereo partly specified) [Doxycycline] | 103% |
| OC[C@H]1NC[C@H](O)[C@@H](O)[C@@H]1O [Duvoglustat] | 83.4% |
| O=C(NCCN1CCC(n2c(O)nc3ccccc32)CC1)c1cc2cc(F)ccc2[nH]1 [FIPI] | 102% |
| CCN(CCO)CCCC(C)Nc1ccnc2cc(Cl)ccc12 (stereo unspecified) [Hydroxychloroquine sulfate] | 94.9% |
| O=C([O-])CC(O)(C(=O)[O-])C(O)C(=O)[O-].[K+].[K+].[K+] (stereo unspecified) [Hydroxycitrate] | 95.8% |
